Test results as given in patent publication US5225543A, “Receptors method for purification of G protein-linked” (priority 1991, dated 1993).
“Also recorded” adds a separate entry of the source. Where no end group is shown, it is not given here. The star is where a group is joined. Biotin = O=C1N[C@H]2[C@H](CS[C@H]2CCCCC(=O)*)N1; Ahx = NCCCCCC(=O)O

Tests used:
[1] = test system: receptor:ligand complex (GH4 C1 membranes, [^125 I]Tyr11-S14); assay: Detergent solubilization of specifically bound [^125 I]Tyr11-S14 from GH4 C1 membranes and recovery of intact complex (FIGS. 2, 3); conditions: [^125 I]Tyr11-S14, FIG. 2
Experimental: (§1) To solubilize membranes, washed pellets after the binding step are resuspended free of visible particles by pipetting and vortexing in solubilization buffer+1/100 (vol/vol) of 100× 4Pase protease inhibitors+detergent at the desired concentration. After 1 hour on ice, the samples are centrifuged at 100,000×g for 30 minutes. The supernatants are removed and held on ice and the pellets are discarded.
(§2) Sephadex G-50 columns (8×130 mm) are equilibrated with solubilization buffer containing detergent at the concentration used to solubilize membranes and 1 mg/ml bovine serum albumin. 0.2-0.5 ml samples of solubilized membranes are applied to the columns and eluted at a flow rate of about 0.7 ml/minute. 0.18 ml samples are collected. Radioactivity is determined in a gamma counter as described under "Receptor Binding Methods". Void volumes of the columns are determined by the elution volume of blue dextran. Radioactivity eluting in the void volume (>50,000 MW) was considered bound to protein. […] The mixture is held on ice for 15 minutes. Then 3 ml of 0.1M sodium phosphate (pH 7.4) is added to a final part of 4 ml per sample and the samples are rapidly (1-3 seconds) filtered over Whatman GF/B glass fiber filters and washed with 4 ml of the phosphate buffer. […] Whatman GF/B glass fiber filters are soaked in 0.3% polyethyleneimine (PEI, Sigma) for 3 hours. 25-100 ul samples of solubilized membranes are placed in 12×75 mm polypropylene tubes. Then 4 ml of solubilization buffer (without detergent) is added per sample and the samples are immediately filtered through the GFB/PEI filters (1-3 seconds) and washed with 4 ml of solubilization buffer. […] 0.5 gm of Dextran T70 (Pharmacia) is dissolved in 1 liter of water and then 5 gm of activated charcoal (Norit A, alkaline; Fisher Scientific) is added. The suspension is stirred for 10 minutes at room temperature and then stored at 4° C. until use. To measure R:L complex, 4 parts by volume of charcoal/dextran suspension are added to 1 part by volume of solubilized membrane. The samples are mixed and held on ice for 2 minutes and then centrifuged for 2 minutes at 11,000×g in a Beckman microfuge. Free radioligand is adsorbed to charcoal/dextran and is discarded with the pellet.

[2] = target: receptor:ligand complex (GH4 C1 membranes, [^125 I]BioS28) (Rattus norvegicus, UniProt P30680); assay: Detergent solubilization of receptor:[^125 I]BioS28 complex, charcoal/dextran assay (Table 2A); conditions: for solubilization and stabilization of receptor:ligand complex: [^125 I]BioS28, Table 2A; for Solubilization of specifically bound CPM (%): based on 14,013 cpm specifically bound [^125 I]BioS28 per sample; for Solubilized CPM in intact R:L complex (%): charcoal/dextran method
Chain of receptor:ligand complex (GH4 C1 membranes, [^125 I]BioS28) (P30680 whole entry, one chain of several): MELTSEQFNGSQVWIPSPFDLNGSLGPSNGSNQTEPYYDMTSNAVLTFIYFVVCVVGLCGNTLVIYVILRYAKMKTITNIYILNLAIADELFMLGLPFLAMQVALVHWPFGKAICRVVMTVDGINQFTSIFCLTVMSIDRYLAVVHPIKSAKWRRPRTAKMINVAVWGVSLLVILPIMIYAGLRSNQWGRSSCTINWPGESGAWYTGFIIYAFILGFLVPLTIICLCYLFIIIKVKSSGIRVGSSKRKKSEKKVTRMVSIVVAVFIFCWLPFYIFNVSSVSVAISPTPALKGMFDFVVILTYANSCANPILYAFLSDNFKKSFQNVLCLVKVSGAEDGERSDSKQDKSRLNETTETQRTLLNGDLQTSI
Experimental: as §1, §2
Membrane solubilization is conducted as already described; however, determination of the presence of the intact receptor:ligand complex in the 100,000×g supernatant is accomplished by charcoal/dextran assay ("Methods: Assay of Solubilized, 4.").

streptavidin = assay: Effect of detergent on binding of solubilized R:L complex to streptavidin (Table 2B); conditions: for % of original R:L complex bound to SA: % R:L bound to SA × % solubilization of original R:L complex; for % of intact R:L nonbound to SA in 5 hours: streptavidin-agarose, charcoal/dextran assay
Experimental: The final determination is whether the detergent interferes with binding of the receptor:[^125 I]BioS-28. […] R:L complex in the supernatants ("non-bound to SA") after this time is measured by the charcoal/dextran assay. The % of non-bound, intact R:L complex is calculated from the ratio (R:L non-bound to SA/original R:L in the 100,000×g supernatant). The % of intact R:L complex bound to SA is calculated by subtracting % non-bound R:L from 100%. Finally, % of original R:L bound to SA=% R:L bound to SA×% solubilization of original membrane-bound R:L complex.

[3] = target: T1, SRIF receptor (GH4 C1 membranes) (Rattus norvegicus, UniProt P30680); assay: Competitive radioligand binding vs [^125 I]Tyr11-S14 on GH4 C1 membranes (FIG. 4); conditions: for IC50: vs [^125 I]Tyr11-S14, 20 ug GH4 C1 membrane protein, 100,000 cpm (FIG. 4B)
T1 construct: GH4 C1 rat pituitary tumor cells; endogenous in cells; host or cells: GH4 C1 rat pituitary tumor cells (isolated membranes)
T1 sequence (P30680 whole entry): as the sequence (P30680 whole entry, one chain of several) above
Experimental: Membrane Isolation--1-8 liter batches of cells at densities of 6-10×10^5 cells/ml are pelleted in conical bottom glass centrifuge bottles (600 or 800 ml; Bellco) at 1,000× g for 5 min. The supernatants are carefully poured off and the cells are resuspended in ice cold homogenization medium (1 mM Na-bicarbonate at pH 7.6, 1 mM EDTA and 1 mM EGTA) containing 0.7% (vol/vol) of the "100×4pase" protease inhibitor cocktail (see below). Twenty ml of homogenization medium is used for every liter of suspension culture. After 5 min. on ice, the hypotonically swollen cells are homogenized with 10 strokes of a tight fitting Dounce homogenizer (Kontes, type A pestle). The homogenate is centrifuged at 1,000× g for 10 min. and the supernatant is removed and kept on ice. The 1,000× g pellet containing residual intact cells, nuclei and DNA is washed by gently homogenizing with 4 strokes with a type B pestle in one half the original volume of homogenization medium and recentrifuging for 10 min. at 1,000× g. The final 1,000× g pellet consists mostly of DNA and is discarded. The 1,000× g supernatants are combined and centrifuged at 20,000× g for 30 min. The 20,000× g pellet is washed twice in 25 mM Tris (pH 7.4), with centrifugation for 25 min. at 20,000 2 g. Final membrane pellets are resuspended in 25 mM Tris buffer to concentrations of 4-10 mg membrane protein/ml. Then the 100× 4pase protease inhibitor cocktails are added to 1% of final volume and aliquots are frozen on dry ice. Membranes are stored at -90° C. until needed. Membrane protein is assayed with the Bradford dye binding assay (Bio-Rad).
Standard Binding Assays--Binding assays are done in a binding buffer containing 50 mM HEPES (pH 7.4), 0.5% BSA and 5 mM MgCl2. The standard assay for [^125 I]SRIF analog binding to GH4 CL membranes, done in 96 well microtiter plates (Dynatech Immulon II Removawell plates), is carried out as follows: 1. Radioligand is diluted in binding buffer+PMSF/Baci to the desired cpm per vol. of 50 μl and then 50 μl aliquots are added to the wells. For non-specific binding samples, 5 μl of 40 μM cold S14 is also added per well. […] Binding is initiated by adding 150 μl per well of membrane diluted to the desired concentration (10-30 ug membrane protein/well) in binding buffer+PMSF/Baci. Plates are then covered with Linbro mylar plate sealers (Flow Labs) and placed on a Dynatech Microshaker II and binding is allowed to proceed at room temperature for 1-2 hours. Binding is stopped by centrifuging the plate for 15 minutes at 2,000×g. The supernatants are dumped off and membrane pellets washed once by addition of 200 μl of ice cold binding buffer, brief shaking and recentrifugation. Finally the individual wells are placed in 12×75 mm tubes and counted in an LKB Gammamaster counter (78% efficiency). […]

| Compound | solubilization of receptor:ligand complex / bound radioligand [1] | % Solubilization of original R:L in membranes (A × B) [2] | solubilization and stabilization of receptor:ligand complex [2] | Solubilization of specifically bound CPM (%) [2] | Solubilized CPM in intact R:L complex (%) [2] | % of intact R:L bound to SA (100% - A) (streptavidin) | % of original R:L complex bound to SA (streptavidin) | % of intact R:L nonbound to SA in 5 hours (streptavidin) | potency relative to S14 in competitive binding assay ([3]; % the potency of S14, 40 ug membrane protein, 85,000 cpm (FIG. 4A)) | IC50 [3] |
| --- | --- | --- | --- | --- | --- | --- | --- | --- | --- | --- |
| C[C@H](CCC(=O)O)[C@H]1CC[C@H]2[C@@H]3CC[C@@H]4C[C@H](O)CC[C@]4(C)[C@H]3C[C@H](O)[C@]12C [Deoxycholate] | superior solubilization | 31% | satisfactory results | 93% | 33% | 89% | 29% | 11% | – | – |
| Biotinyl-NH--SRIF14 [Bio-S14] | – | – | – | – | – | – | – | – | about 1.5% | – |
| C[C@@H]1CC[C@@]2(OC1)O[C@H]1[C@@H](O)[C@H]3[C@@H]4CC[C@H]5C[C@@H](O[C@@H]6O[C@H](CO)[C@H](O[C@@H]7O[C@H](CO)[C@@H](O)[C@H](O[C@@H]8OC[C@@H](O)[C@H](O)[C@H]8O)[C@H]7O[C@@H]7O[C@H](CO)[C@H](O)[C@H](O[C@@H]8O[C@H](CO)[C@@H](O)[C@H](O)[C@H]8O)[C@H]7O)[C@H](O)[C@H]6O)[C@H](O)C[C@]5(C)[C@H]4CC[C@]3(C)[C@H]1[C@@H]2C [Digitonin] | less satisfactory but adequate levels of solubilization | 28% | satisfactory results | 55% | 50% | 87% | 24% | 13% | – | – |
| Lysolecithin | less satisfactory but adequate levels of solubilization | 33% | satisfactory results | 73% | 46% | 36% | 16% | 65% | – | – |
| Biotinyl-[NH--(CH2)5 --CO]--NH-(Tyr11)SRIF14 ({Biotin-Ahx}-AGCKNFFWKTYTSC; ends and bridges not checked; UniProt P61278 103-116, looked up, variant F11Y) [Bio-6C-S14] | – | – | – | – | – | – | – | – | – | 2 nM |
| C[C@H](CCC(=O)NCCC[N+](C)(C)CCCS(=O)(=O)[O-])[C@H]1CC[C@H]2[C@@H]3[C@H](O)C[C@@H]4C[C@H](O)CC[C@]4(C)[C@H]3C[C@H](O)[C@]12C [CHAPS] | total solubilization of radioligand is relatively low; also recorded: did not solubilize well at all at any concentration tested | 12% | – | 38% | 32% | 56% | 7% | 44% | – | – |
| Biotinyl-[NH--(CH2)5 --CO]2 --NH-(Tyr11)SRIF14 ({Biotin-Ahx-Ahx}-AGCKNFFWKTYTSC; ends and bridges not checked; UniProt P61278 103-116, looked up, variant F11Y) [Bio-12C-S14] | – | – | – | – | – | – | – | – | – | 2 nM |
